Values quoted from earlier work as cited in patent US20230364004A1, “STABLE COMPOSITIONS CONTAINING A CANNABINOID” (ANGROW COMPANY LIMITED, priority 2022, published 2023).

Conditions: within 24 hours, simulated physiological condition (PH 7.4 and 37° C.)

C=C(C)[C@@H]1CCC(C)=C[C@H]1c1c(O)cc(CCCCC)cc1O [CBD, cannabidiol]
CBD degraded: 10%
